{"source": "patent US11802120B2", "about": "“Fused cyclic urea derivatives as CRHR2 antagonist” (RaQualia Pharma Inc., priority 2018, dated 2023)", "data": [{"target": "T1, human CRHR2-alpha (Homo sapiens, UniProt Q13324)", "T1 sequence (Q13324 1-411)": "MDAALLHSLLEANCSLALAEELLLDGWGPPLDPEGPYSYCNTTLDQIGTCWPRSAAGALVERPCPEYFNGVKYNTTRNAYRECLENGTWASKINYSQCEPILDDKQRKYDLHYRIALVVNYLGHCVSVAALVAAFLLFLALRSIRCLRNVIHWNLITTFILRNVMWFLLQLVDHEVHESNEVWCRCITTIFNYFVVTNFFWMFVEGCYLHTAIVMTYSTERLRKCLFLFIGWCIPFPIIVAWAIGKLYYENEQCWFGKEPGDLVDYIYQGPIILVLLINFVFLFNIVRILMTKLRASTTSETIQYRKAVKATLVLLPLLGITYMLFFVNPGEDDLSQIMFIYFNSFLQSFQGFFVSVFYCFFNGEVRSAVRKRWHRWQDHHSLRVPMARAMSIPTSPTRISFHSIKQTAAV", "assay": "cAMP functional assay for human CRHR2 (LANCE Ultra cAMP, TR-FRET)", "assay_type": "cell-based", "settings": "CHO-K1 cells expressing human CRHR2-alpha, agonist human urocortin2 at EC80, cAMP; read-out: IC50 against CRHR2", "in_short": "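Antagonism measured in CHO-K1 cells stably expressing the receptor, serum-starved 7 h then cryopreserved. Thawed cells in HBSS buffer with 0.1% BSA, 0.5 mM IBMX, 5 mM Hepes pH 7.4 were preincubated with compound 30 min at 25° C, then stimulated 30 min with EC80 agonist: urocortin2 for CRHR2, CRF for CRHR1.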", "units": {"IC50": "µM"}, "values": [{"molecule": "CNC(=O)c1ccc(-n2c(=O)n(C[C@H]3CC[C@H](NC(=O)c4cc(Cl)cnc4C)CC3)c3cccc(F)c32)cn1", "note": "[Example 235, 5-(3-(((1r,4r)-4-(5-chloro-2-methylnicotinamido)cyclo-hexyl)methyl)-7-fluoro-2-oxo-2,3-dihydro-1H-benzo[d]imidazol-1-yl)-N-methylpicolinamide]", "IC50": "< 0.3"}, {"molecule": "Cc1ncc(Cl)cc1C(=O)N[C@H]1CC[C@H](Cn2c(=O)n(-c3ccnc(N4CCOCC4)c3)c3ccccc32)CC1", "note": "[Example 519, 5-chloro-2-methyl-N-((1r,4r)-4-((3-(2-morpholinopyridin-4-yl)-2-oxo-2,3-dihydro-1H-benzo[d]imidazol-1-yl)methyl)cyclohexyl)nicotinamide]", "IC50": "< 0.3"}, {"molecule": "Cn1cnc2ccc(-n3c(=O)n(C[C@H]4CC[C@H](NC(=O)c5cc(Cl)cnc5C(F)F)CC4)c4ccccc43)cc21", "note": "[Example 406, 5-chloro-2-(difluoromethyl)-N-((1r,4r)-4-((3′-methyl-2-oxo-3′H-[1,5′-bibenzo[d]imidazol]-3(2H)-yl)methyl)cyclohexyl) nicotinamide]", "IC50": "< 0.3"}, {"molecule": "O=C(N[C@H]1CC[C@H](Cn2c(=O)n(-c3cccc(N4CCOCC4)c3)c3ccccc32)CC1)c1cc(Cl)cnc1C(F)F", "note": "[Example 566, 5-chloro-2-(difluoromethyl)-N-((1r,4r)-4-((3-(3-morpholinophenyl)-2-oxo-2,3-dihydro-1H-benzo[d]imidazol-1-yl)methyl)cyclo-hexyl)nicotinamide]", "IC50": "< 0.3"}, {"molecule": "COCCOc1ccc(-n2c(=O)n(C[C@H]3CC[C@H](NC(=O)c4cc(Cl)cnc4C)CC3)c3ccccc32)cn1", "note": "[Example 417, 5-chloro-N-((1r,4r)-4-((3-(6-(2-methoxyethoxy)pyridin-3-yl)-2-oxo-2,3-dihydro-1H-benzo[d]imidazol-1-yl)methyl)cyclohexyl)-2-methylnicotinamide]", "IC50": "< 0.3"}, {"molecule": "Cc1ncc(Cl)cc1C(=O)N[C@H]1CC[C@H](Cn2c(=O)n(-c3cncc(-n4cccn4)c3)c3ccccc32)CC1", "note": "[Example 636, N-((1r,4r)-4-((3-(5-(1H-pyrazol-1-yl)pyridin-3-yl)-2-oxo-2,3-dihydro-1H-benzo[d]imidazol-1-yl)methyl)cyclohexyl)-5-chloro-2-methylnicotinamide]", "IC50": "< 0.3"}, {"molecule": "Cc1ncc(Cl)cc1C(=O)N[C@H]1CC[C@H](Cn2c(=O)n(-c3ccc4nnn(C)c4c3)c3ccccc32)CC1", "note": "[Example 232, 5-chloro-2-methyl-N-((1r,4r)-4-((3-(1-methyl-1H-benzo[d] [1,2,3]triazol-6-yl)-2-oxo-2,3-dihydro-1H-benzo[d]imidazol-1-yl)methyl)cyclohexyl) nicotinamide]", "IC50": "< 0.3"}, {"molecule": "Cc1c[nH]c2ncc(-n3c(=O)n(C[C@H]4CC[C@H](NC(=O)c5cc(Cl)cnc5C(F)(F)F)CC4)c4cccnc43)cc12", "note": "[Example 427, 5-chloro-N-((1r,4r)-4-((3-(3-methyl-1H-pyrrolo[2,3-b]pyridin-5-yl)-2-oxo-2,3-dihydro-1H-imidazo[4,5-b]pyridin-1-yl)methyl)cyclo-hexyl)-2-(trifluoromethyl) nicotinamide]", "IC50": "< 0.3"}, {"molecule": "O=C(N[C@H]1CC[C@H](Cn2c(=O)n(-c3ccc4ncccc4c3)c3ccccc32)CC1)c1cc(Cl)cnc1C(F)F", "note": "[Example 392, 5-chloro-2-(difluoromethyl)-N-((1r,4r)-4-((2-oxo-3-(quinolin-6-yl)-2,3-dihydro-1H-benzo[d]imidazol-1-yl)methyl)cyclohexyl)nicotinamide]", "IC50": "< 0.3"}, {"molecule": "Cc1ncc(Cl)cc1C(=O)N[C@H]1CC[C@H](Cn2c(=O)n(-c3ccc4c(c3)oc(=O)n4C)c3ccccc32)CC1", "note": "[Example 164, 5-chloro-2-methyl-N-((1r,4r)-4-((3-(3-methyl-2-oxo-2,3-dihydrobenzo[d]oxazol-6-yl)-2-oxo-2,3-dihydro-1H-benzo [d]imidazol-1-yl)methyl)cyclo-hexyl)nicotinamide]", "IC50": "< 0.3"}]}]}
